Results taken from patent publication US12213970B2, “Pyridinyl sulfonamide derivatives, pharmaceutical compositions and uses thereof” (Boehringer Ingelheim International GmbH, priority 2018, dated 2025).
pIC50: −log10 of the molar value. Where a name gives a salt, the structure may show the parent alone. Read-outs that look alike come from different tables or passages of the source.

Assays:
[1] = biological target: T1, human AOC3 enzyme (recombinant CHO cells) (Homo sapiens, UniProt Q16853); assay: AOC3 biochemical assay (MAO-Glo), human enzyme
T1 construct: expressed in transfected cells; host or cells: CHO cells
T1 sequence (Q16853 1-763): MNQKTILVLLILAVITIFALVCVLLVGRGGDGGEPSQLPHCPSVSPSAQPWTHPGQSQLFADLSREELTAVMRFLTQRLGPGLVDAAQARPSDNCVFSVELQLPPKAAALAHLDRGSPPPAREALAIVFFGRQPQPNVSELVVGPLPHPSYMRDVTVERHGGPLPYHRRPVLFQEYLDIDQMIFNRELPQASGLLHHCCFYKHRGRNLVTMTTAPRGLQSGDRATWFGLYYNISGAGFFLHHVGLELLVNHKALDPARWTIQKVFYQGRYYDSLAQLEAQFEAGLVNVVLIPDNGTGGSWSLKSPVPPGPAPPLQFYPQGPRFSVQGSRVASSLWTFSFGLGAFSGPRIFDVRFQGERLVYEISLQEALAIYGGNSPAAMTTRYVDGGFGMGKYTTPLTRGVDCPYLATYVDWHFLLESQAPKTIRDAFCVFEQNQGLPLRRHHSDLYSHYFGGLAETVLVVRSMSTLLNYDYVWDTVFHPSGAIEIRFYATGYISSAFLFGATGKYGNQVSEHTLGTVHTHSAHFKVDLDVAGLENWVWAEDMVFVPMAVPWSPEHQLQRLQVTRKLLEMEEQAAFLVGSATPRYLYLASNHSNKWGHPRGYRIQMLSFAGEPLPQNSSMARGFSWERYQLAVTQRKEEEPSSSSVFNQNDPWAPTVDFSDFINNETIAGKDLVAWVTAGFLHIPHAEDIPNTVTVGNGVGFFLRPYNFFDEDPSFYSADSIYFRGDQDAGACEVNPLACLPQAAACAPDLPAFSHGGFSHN
Source text: The MAO-Glo™ Assay (commercially available from PROMEGA, #V1402) provides a sensitive method for the measurement of monoamine oxidase (MAO) activity (Valley, M. P. et al., 2006, Anal. Biochem. 359: 238-246) from a variety of tissues, biofluids or recombinant expressed or purified enzymes. As substrate a derivate of the beetle luciferin ((4S)-4,5-dihydro-2-(6-hydroxybenzothiazolyl)-4-thiazole-carboxylic acid) is used, which is oxidized at a primary amine moiety. After a spontaneous elimination and a catalyzed esterase reaction, the turnover of luciferin by the luciferase is recorded as a signal of AOC3 activity.
An aliquot of 3 μL of the compound dilution is added to a 384 well plate (Optiplate, PS, flat bottom, white, PERKIN ELMER, #6007290) with a final DMSO concentration of 6.6%. Recombinant CHO cells, overexpressing the human (1500 cells/well), mouse (1000 cells/well) or rat (500 cells/well) AOC3 enzyme are diluted in reaction buffer and added in a volume of 15 μL to the wells. After incubation for 20 minutes at 37° C., 2 μL of MAO substrate (dissolved in DMSO at 16 mM, adjusted to assay concentration in reaction buffer to a final assay concentration of 20 μM) is added and further incubated for 60 minutes at 37° C. The turnover of the substrate is determined by the addition of 20 μL of the detection-mix which was generated by the addition of reconstitution buffer with esterase (PROMEGA, #V1402) to the luciferin detection reagent (PROMEGA, #V1402). After an incubation period of 20 minutes, the luminescent signal is measured with Envision 2104 Multilabel Reader (PERKIN ELMER).

[2] = biological target: T2, AOC1 (Homo sapiens, UniProt P19801); assay: AOC1 biochemical assay (Amplex Red)
T2 construct: purchased R&D Systems 8297-AO-010
T2 sequence (P19801 20-751): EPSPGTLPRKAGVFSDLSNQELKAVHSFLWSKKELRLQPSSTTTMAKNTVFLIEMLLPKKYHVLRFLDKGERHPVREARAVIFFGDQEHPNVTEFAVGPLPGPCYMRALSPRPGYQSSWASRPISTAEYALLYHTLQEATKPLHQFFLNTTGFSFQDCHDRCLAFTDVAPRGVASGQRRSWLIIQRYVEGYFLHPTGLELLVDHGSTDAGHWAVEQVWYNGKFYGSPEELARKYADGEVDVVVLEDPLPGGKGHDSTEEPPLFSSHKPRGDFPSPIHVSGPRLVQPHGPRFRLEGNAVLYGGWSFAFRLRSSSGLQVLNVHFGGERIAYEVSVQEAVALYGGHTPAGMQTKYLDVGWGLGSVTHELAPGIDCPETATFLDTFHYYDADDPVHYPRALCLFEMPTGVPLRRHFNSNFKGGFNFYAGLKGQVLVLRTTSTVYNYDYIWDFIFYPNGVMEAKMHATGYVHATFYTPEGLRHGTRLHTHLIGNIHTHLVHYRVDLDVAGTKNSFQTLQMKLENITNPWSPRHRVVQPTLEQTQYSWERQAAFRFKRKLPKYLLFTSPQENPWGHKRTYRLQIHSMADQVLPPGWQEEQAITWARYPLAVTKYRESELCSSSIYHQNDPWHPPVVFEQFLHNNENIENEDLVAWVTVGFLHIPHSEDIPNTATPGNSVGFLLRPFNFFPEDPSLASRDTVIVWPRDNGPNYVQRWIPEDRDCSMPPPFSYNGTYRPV
Protocol: The Amplex® Red Assay (available from Thermo Fisher Scientific) provides a sensitive method for the detection of H2O2 generated during enzymatic reactions like the amine oxidation catalyzed by AOC1. The assay reagent is a colorless substrate (N-acetyl-3,7-dihydroxyphenoxazine) that reacts in a 1:1 stoichiometry with hydrogen peroxide (H2O2) to produce the fluorescent dye resorufin (7-hydroxyphenoxazin-3-one, excitation/emission maxima=570/585 nm).
An aliquot of 3 μL of the compound dilution is added to a 384 well plate (Optiplate, PS, flat bottom F, black, PERKIN ELMER, #6007270) in a DMSO concentration of 6.6%.
An AOC1 enzyme aliquot (#8297-AO-010, R&D Systems) is thawed on ice, diluted in reaction buffer and added in a volume of 7 μL to the wells to give a final assay concentration of 1 ng/well. After incubation of inhibitor and enzyme for 30 minutes at 37° C., the enzymatic reaction is started with the addition of 10 μL of Amplex® Red reaction mix (final assay concentration: 100 mM sodiumphosphate, 120 μM Amplex® Red reagent (#A22177 Molecular Probes), 1.5 U/mL Horseradish Peroxidase (#P8375 Sigma-Aldrich), 200 μM putrescine (#P7505 Sigma-Alrdich), 0.05% Pluronic F-127 (#P3000MP Sigma-Aldrich), pH 7.4, 37° C.).
After an incubation for 30 minutes at 37° C. the turnover of the substrate is determined directly (or after the addition of an excess of an amine-oxidase inhibitor) with a fluorescence reader (Ex 540 nm/Em 590 nm) like Envision 2104 Multilabel Reader (PERKIN ELMER).

[3] = comparison table, read-out: IC50 AOC3
[4] = comparison table, read-out: IC50 AOC1

Compound	pIC50 ([1]; read-out: AOC3 IC50)	pIC50 ([2]; read-out: AOC1 IC50)	also measured
COC(=O)[C@H]1[C@@H]2CN(S(=O)(=O)c3ccc(OC/C(=C\F)CN)nc3)C[C@@H]21 [Example 35, trans-3-[6-((Z)-2-Aminomethyl-3-fluoro-allyloxy)-pyridine-3-sulfonyl]-3-aza-bicyclo[3.1.0]hexane-6-carboxylic acid methyl ester trifluoroacetate]	8.52	5.73	
COC(=O)C1(C)CCN(S(=O)(=O)c2ccc(OC/C(=C\F)CN)nc2)CC1 [Example 36]	8.40	5.86	
CNC(=O)C1CCN(S(=O)(=O)c2ccc(OC/C(=C\F)CN)nc2)CC1 [Example 37, trifluoroacetate]	8.00	5.01	
NC/C(=C/F)COc1ccc(S(=O)(=O)N2CCCCC2)cn1 [Example 38]	8.52	6.63	
NC/C(=C/F)COc1ccc(S(=O)(=O)N2CC[C@H](C(N)=O)C2)cn1 [Example 39]	8.22	6.04	
COC1CCN(S(=O)(=O)c2ccc(OC/C(=C\F)CN)nc2)CC1 [Example 40]	8.40	6.11	
CC1(O)CCN(S(=O)(=O)c2ccc(OC/C(=C\F)CN)nc2)CC1 [Example 41]	8.00	6.88	
NC/C(=C/F)COc1ccc(S(=O)(=O)N2CCC(O)(C(F)(F)F)CC2)cn1 [Example 42]	8.22	5.63	
NC/C(=C/F)COc1ccc(S(=O)(=O)N2CC[C@H](O)C2)cn1 [Example 43, (S)-1-[6-(Z)-2-Aminomethyl-3-fluoro-allyloxy]-pyridine-3-sulfonyl]-pyrrolidin-3-ol trifluoroacetate]	8.00		pIC50 ([2]; read-out: IC50 AOC1): 6.02; factor less active on AOC1 than the comparison compound ([2]; versus the Z isomer of example 6 of WO 2018/027892): 14
NC/C(=C/F)COc1ccc(S(=O)(=O)N2CCC(CC(=O)O)CC2)cn1 [Example 44, trifluoroacetate]	6.96	< 4.30	
NC/C(=C/F)COc1ccc(S(=O)(=O)N2C[C@@H]3[C@H](C2)[C@H]3C(=O)O)cn1 [Example 45, trans-3-[6-((Z)-2-Aminomethyl-3-fluoro-allyloxy)-pyridine-3-sulfonyl]-3-aza-bicyclo[3.1.0]hexane-6-carboxylic acid trifluoroacetate]	7.17	4.42	
NC/C(=C/F)COc1ccc(S(=O)(=O)N2CCC(C(=O)O)CC2)cn1 [Example 46]	6.31	< 4.30	
CC1(C(=O)O)CCN(S(=O)(=O)c2ccc(OC/C(=C\F)CN)nc2)CC1 [Example 47]	6.26	< 4.30	
CC1(C(=O)NC2CCOCC2)CCN(S(=O)(=O)c2ccc(OC/C(=C\F)CN)nc2)CC1 [Example 48, 1-[6-((Z)-2-Aminomethyl-3-fluoro-allyloxy)-pyridine-3-sulfonyl]-4-methyl-piperidine-4-carboxylic acid (tetrahydropyran-4-yl)-amide trifluoroacetate]	7.48	4.89	
CC1(C(N)=O)CCN(S(=O)(=O)c2ccc(OC/C(=C\F)CN)nc2)CC1 [Example 49]	8.10	6.26	
NC/C(=C/F)COc1ccc(S(=O)(=O)N2CCC(CC(N)=O)CC2)cn1 [Example 50]	8.10	5.27	
CC(F)(F)CNC(=O)CC1CCN(S(=O)(=O)c2ccc(OC/C(=C\F)CN)nc2)CC1 [Example 51]	7.92	4.99	
NC/C(=C/F)COc1ccc(S(=O)(=O)N2CCC(CC(=O)NCCO)CC2)cn1 [Example 52]	7.77	4.82	
CC1(C(=O)NCCF)CCN(S(=O)(=O)c2ccc(OC/C(=C\F)CN)nc2)CC1 [Example 53]	7.77	4.84	
COCCNC(=O)CC1CCN(S(=O)(=O)c2ccc(OC/C(=C\F)CN)nc2)CC1 [Example 54]	7.72	4.98	
NC/C(=C/F)COc1ccc(S(=O)(=O)N2CCC(CC(=O)N3CC(O)C3)CC2)cn1 [Example 55]	7.77	4.57	
CC1(C(=O)NC2CC2)CCN(S(=O)(=O)c2ccc(OC/C(=C\F)CN)nc2)CC1 [Example 56]	7.68	4.94	
COC1CN(S(=O)(=O)c2ccc(OC/C(=C\F)CN)cc2)C1 [Reference compound A, reference compound]			pIC50 [1, 3]: 8.52; pIC50 [2, 4]: 5.76
NC/C(=C/F)COc1ccc(S(=O)(=O)N2CC[C@H](O)C2)cc1 [Reference compound B, reference compound]			pIC50 [1, 3]: 8.22; pIC50 [2, 4]: 5.92
NC/C(=C/F)COc1cnc(N2CC[C@H](O)C2)nc1 [Z isomer of example 6 of WO 2018/027892, reference compound]			pIC50 [1, 3]: 8.15; pIC50 ([2]; read-out: IC50 AOC1): 7.15
NC/C(=C/F)COc1cnc(N2CCC(O)CC2)nc1 [reference compound]			pIC50 [1, 3]: 8.40; pIC50 [2, 4]: 7.18
